Measured values as given in ChEMBL document CHEMBL1201862, “PubChem BioAssay data set” (2004).
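Briefly, cells in 96-well plates were exposed to five compound concentrations for 48 h, and endpoints were estimated by linear interpolation. At the GI50, growth is halved.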 The source made the active and inactive calls. Cut-off read from the data, not from the text of the source: active = GI50 up to about 1.1 µM and inactive = higher.

Experiments:
Experiment in all cases: NCI anticancer screen, dose series, 48 h
NCI-H460 = test system: NCI-H460
BT-549 = test system: BT-549
SNB-75 = test system: SNB-75
OVCAR-8 = test system: OVCAR-8
LOX IMVI = test system: LOX IMVI
IGROV-1 = test system: IGROV-1
ACHN = test system: ACHN
HT-29 = test system: HT-29
T47D = test system: T47D
NCI/ADR-RES = test system: NCI/ADR-RES
SK-MEL-5 = test system: SK-MEL-5
SN12C = test system: SN12C
A498 = test system: A498
HCT-116 = test system: HCT-116
DU-145 = test system: DU-145
SF-295 = test system: SF-295
MDA-MB-435 = test system: MDA-MB-435
UACC-257 = test system: UACC-257
Malme-3M = test system: Malme-3M
RPMI-8226 = test system: RPMI-8226

SMILES | GI50 (NCI-H460) | GI50 (BT-549) | GI50 (SNB-75) | GI50 (OVCAR-8) | GI50 (LOX IMVI) | GI50 (IGROV-1) | GI50 (ACHN) | GI50 (HT-29) | GI50 (T47D) | GI50 (NCI/ADR-RES) | GI50 (SK-MEL-5) | GI50 (SN12C) | GI50 (A498) | GI50 (HCT-116) | GI50 (DU-145) | GI50 (SF-295) | GI50 (MDA-MB-435) | GI50 (UACC-257) | GI50 (Malme-3M) | GI50 (RPMI-8226)
N=C(CC(=O)Nc1ccccn1)c1ccccc1 | > 100 µM (inactive) | > 100 µM (inactive) | > 100 µM (inactive) | > 100 µM (inactive) | > 100 µM (inactive) | > 100 µM (inactive) | > 100 µM (inactive) | > 100 µM (inactive) | > 100 µM (inactive) | > 100 µM (inactive) | > 100 µM (inactive) | > 100 µM (inactive) | > 100 µM (inactive) | > 100 µM (inactive) | > 100 µM (inactive) | > 100 µM (inactive) | > 100 µM (inactive) | > 100 µM (inactive) | > 100 µM (inactive) | > 100 µM (inactive)
COC1(c2ccccc2)N=C(S)NN=C1c1ccccc1 (stereo not given) | 27.5 µM (inactive) | 28.2 µM (inactive) | 38.5 µM (inactive) | 29.3 µM (inactive) | 36.1 µM (inactive) | 34.8 µM (inactive) | > 100 µM (inactive) | 44.2 µM (inactive) | 33.5 µM (inactive) | 19.1 µM (inactive) | 29.5 µM (inactive) | 21 µM (inactive) | > 100 µM (inactive) | 35.5 µM (inactive) | 32.8 µM (inactive) | 30.5 µM (inactive) | 19.5 µM (inactive) | 49.1 µM (inactive) | 60.4 µM (inactive) | 38.9 µM (inactive)
S=C(CSc1ccccc1)Nc1cccc2ccccc12 | 29.9 µM (inactive) | 51.6 µM (inactive) | > 100 µM (inactive) | 67 µM (inactive) | 50.6 µM (inactive) | 72.8 µM (inactive) | 39.7 µM (inactive) | 43.1 µM (inactive) | 40.3 µM (inactive) | 46 µM (inactive) | 18.5 µM (inactive) | 45.7 µM (inactive) | 23.1 µM (inactive) | 35 µM (inactive) | > 100 µM (inactive) | 23.8 µM (inactive) | 34.1 µM (inactive) | 22.3 µM (inactive) | 40.3 µM (inactive) | 35.6 µM (inactive)
C[C@H]1[C@H]2[C@H](C[C@@]3(C)C4=CC[C@H]5C(C)(C)[C@@H](OC6OCC(O)C(O)C6O)CC[C@@]56C[C@@]46CC[C@]23C)O[C@@]2(O)[C@@H]1OC(C)(C)[C@H]2O (stereo not given in full) | 2.12 µM (inactive) | 1.86 µM (inactive) | 1.62 µM (inactive) | 0.879 µM (active) | 1.48 µM (inactive) | 0.918 µM (active) | 2.12 µM (inactive) | 2.61 µM (inactive) | 0.83 µM (active) | 2.67 µM (inactive) | 1.66 µM (inactive) | 1.06 µM (active) | 1.89 µM (inactive) | 1.45 µM (inactive) | 1.02 µM (active) | 0.429 µM (active) | 0.984 µM (active) | 1.6 µM (inactive) | 0.993 µM (active) | 1.15 µM (inactive)
COC(=O)C1=CON2C3CC4CC(C3)CC(C4)C12C (stereo not given) | > 100 µM (inactive) | > 100 µM (inactive) | > 100 µM (inactive) | > 100 µM (inactive) | > 100 µM (inactive) | > 100 µM (inactive) | > 100 µM (inactive) | > 100 µM (inactive) | > 100 µM (inactive) | > 100 µM (inactive) | > 100 µM (inactive) | > 100 µM (inactive) | > 100 µM (inactive) | > 100 µM (inactive) | > 100 µM (inactive) | > 100 µM (inactive) | > 100 µM (inactive) | > 100 µM (inactive) | > 100 µM (inactive) | > 100 µM (inactive)
COC(=O)C(Cc1ccccc1)NC(=O)c1ccc(CNC(=S)NCc2cccc(CNC(=S)NCc3ccccc3)c2)cc1 (stereo not given) | > 36.5 µM (inactive) | > 33.9 µM (inactive) | 13.4 µM (inactive) | > 31.7 µM (inactive) | > 35.6 µM (inactive) | > 31.7 µM (inactive) | > 34.5 µM (inactive) | > 33.7 µM (inactive) | > 33.7 µM (inactive) | > 32.7 µM (inactive) | > 32.6 µM (inactive) | > 31.8 µM (inactive) | > 62.5 µM (inactive) | > 34 µM (inactive) | > 35.9 µM (inactive) | > 33.4 µM (inactive) | > 34.2 µM (inactive) | > 35.8 µM (inactive) | > 34.9 µM (inactive) | > 29.1 µM (inactive)
O=CC(O)C(O)C(O)C1CNC(=S)O1 (stereo not given) | > 100 µM (inactive) | > 100 µM (inactive) | > 100 µM (inactive) | > 100 µM (inactive) | > 100 µM (inactive) | > 100 µM (inactive) | > 100 µM (inactive) | > 100 µM (inactive) | > 100 µM (inactive) | > 100 µM (inactive) | > 100 µM (inactive) | > 100 µM (inactive) | > 100 µM (inactive) | > 100 µM (inactive) | > 100 µM (inactive) | > 100 µM (inactive) | > 100 µM (inactive) | > 100 µM (inactive) | > 100 µM (inactive) | > 100 µM (inactive)
CN(C)CCCNc1c2c(nc3ccc(Cl)cc13)CCCC2 | 9.93 µM (inactive) | 18.1 µM (inactive) | 15.7 µM (inactive) | 12.8 µM (inactive) | 11.9 µM (inactive) | 12.7 µM (inactive) | 16.1 µM (inactive) | 5.47 µM (inactive) | 26.5 µM (inactive) | 18.1 µM (inactive) | 14.4 µM (inactive) | 11.8 µM (inactive) | 18 µM (inactive) | 6.03 µM (inactive) | 13.9 µM (inactive) | 14.5 µM (inactive) | 14.9 µM (inactive) | 16.3 µM (inactive) | 15.6 µM (inactive) | 7.59 µM (inactive)
CC(C)C12CCC3(CCC4C(C)(C(=O)O)CCCC4(C)C3C1)C(CN)C2 (stereo not given) | 21.5 µM (inactive) | 38.5 µM (inactive) | 88.5 µM (inactive) | 30.7 µM (inactive) | 18.7 µM (inactive) | 53.2 µM (inactive) | 33.4 µM (inactive) | 23.4 µM (inactive) | 55.2 µM (inactive) | 37.6 µM (inactive) | 27.7 µM (inactive) | 20.8 µM (inactive) | 28.8 µM (inactive) | 17.3 µM (inactive) | 38.6 µM (inactive) | 51.2 µM (inactive) | 37.7 µM (inactive) | 40.1 µM (inactive) | 45 µM (inactive) | 19.3 µM (inactive)
C(=N\c1ccc(-c2nc3ccccc3s2)cc1)/c1ccco1 | 40.3 µM (inactive) | 83.4 µM (inactive) | 85.5 µM (inactive) | 64.9 µM (inactive) | 54.1 µM (inactive) | 58.1 µM (inactive) | 44.8 µM (inactive) | 70 µM (inactive) | 41.6 µM (inactive) | 60.8 µM (inactive) | 33.5 µM (inactive) | 75.2 µM (inactive) | 27 µM (inactive) | 82 µM (inactive) | > 100 µM (inactive) | 18.9 µM (inactive) | 64.3 µM (inactive) | 43.8 µM (inactive) | > 100 µM (inactive) | 41.6 µM (inactive)
